Test results as given in ChEMBL document CHEMBL3885881, “DrugMatrix”.

Species on record: Rattus norvegicus
Assay type: toxicity, organism-based, Sprague-Dawley
Conditions: in vivo, po, 24 h, route oral GAVAGE, time 1 day, vehicle .5 % CMC; for ABSOLUTE EOSINOPHIL / ABSOLUTE LYMPHOCYTE / ABSOLUTE MONOCYTE / BASOPHIL / EOSINOPHIL / ERYTHROCYTE COUNT / HEMATOCRIT / HEMOGLOBIN / LEUKOCYTE COUNT / LYMPHOCYTE / MEAN CORPUSCULAR HEMOGLOBIN / MEAN CORPUSCULAR HEMOGLOBIN CONCENTRATION / MEAN CORPUSCULAR VOLUME / MONOCYTE / NEUTROPHIL / PLATELET COUNT / ABSOLUTE BASOPHIL: tissue Blood; for ALANINE AMINOTRANSFERASE / ALBUMIN / ALKALINE PHOSPHATASE / ASPARTATE AMINOTRANSFERASE / BLOOD UREA NITROGEN / CARBON DIOXIDE / CHLORIDE / CHOLESTEROL / CREATINE PHOSPHOKINASE / CREATININE / GLUCOSE / LACTATE DEHYDROGENASE / LIPASE / PHOSPHORUS / POTASSIUM / SODIUM / TOTAL BILIRUBIN / TOTAL PROTEIN / URIC ACID: tissue Plasma
Description: DrugMatrix - Regimen: Single

CN(C)CCN(Cc1cccs1)c1ccccn1
ABSOLUTE EOSINOPHIL (0 mg/kg, dose level Control): 47.5 cells/µL
ABSOLUTE LYMPHOCYTE (0 mg/kg, dose level Control): 8340 cells/µL
ABSOLUTE MONOCYTE (0 mg/kg, dose level Control): 260 cells/µL
BASOPHIL (0 mg/kg, dose level Control): 0.33%
EOSINOPHIL (0 mg/kg, dose level Control): 0.45%
ERYTHROCYTE COUNT (0 mg/kg, dose level Control): 6.31 x10E6/uL
HEMATOCRIT (0 mg/kg, dose level Control): 42.88%
HEMOGLOBIN (0 mg/kg, dose level Control): 13 G/DL
LEUKOCYTE COUNT (0 mg/kg, dose level Control): 10.38 x10E3/uL
LYMPHOCYTE (0 mg/kg, dose level Control): 80.53%
MEAN CORPUSCULAR HEMOGLOBIN (0 mg/kg, dose level Control): 20.6 pg
MEAN CORPUSCULAR HEMOGLOBIN CONCENTRATION (0 mg/kg, dose level Control): 30.3 G/DL
MEAN CORPUSCULAR VOLUME (0 mg/kg, dose level Control): 67.9 fL
MONOCYTE (0 mg/kg, dose level Control): 2.4%
NEUTROPHIL (0 mg/kg, dose level Control): 15.08%
PLATELET COUNT (0 mg/kg, dose level Control): 1192.5 x10E3/uL
ALANINE AMINOTRANSFERASE (0 mg/kg, dose level Control): 47 u/L
ALBUMIN (0 mg/kg, dose level Control): 3.55 G/DL
ALKALINE PHOSPHATASE (0 mg/kg, dose level Control): 460.75 u/L
ASPARTATE AMINOTRANSFERASE (0 mg/kg, dose level Control): 71.75 u/L
BLOOD UREA NITROGEN (0 mg/kg, dose level Control): 13.75 mg/dL
CARBON DIOXIDE (0 mg/kg, dose level Control): 36.75 mmol/L
CHLORIDE (0 mg/kg, dose level Control): 107.25 MEQ/L
CHOLESTEROL (0 mg/kg, dose level Control): 85.25 mg/dL
CREATINE PHOSPHOKINASE (0 mg/kg, dose level Control): 373 u/L
CREATININE (0 mg/kg, dose level Control): 0.67 mg/dL
GLUCOSE (0 mg/kg, dose level Control): 173.25 mg/dL
LACTATE DEHYDROGENASE (0 mg/kg, dose level Control): 241.25 u/L
LIPASE (0 mg/kg, dose level Control): 39.25 u/L
PHOSPHORUS (0 mg/kg, dose level Control): 13.5 mg/dL
POTASSIUM (0 mg/kg, dose level Control): 6.9 MEQ/L
SODIUM (0 mg/kg, dose level Control): 153 MEQ/L
TOTAL BILIRUBIN (0 mg/kg, dose level Control): 0.3 mg/dL
TOTAL PROTEIN (0 mg/kg, dose level Control): 6.05 G/DL
URIC ACID (0 mg/kg, dose level Control): 1.07 mg/dL
ABSOLUTE BASOPHIL (10 mg/kg, dose level Low): 50 cells/µL
ABSOLUTE EOSINOPHIL (10 mg/kg, dose level Low): 57.5 cells/µL
ABSOLUTE LYMPHOCYTE (10 mg/kg, dose level Low): 6900 cells/µL
ABSOLUTE MONOCYTE (10 mg/kg, dose level Low): 160 cells/µL
BASOPHIL (10 mg/kg, dose level Low): 0.62%
EOSINOPHIL (10 mg/kg, dose level Low): 0.68%
ERYTHROCYTE COUNT (10 mg/kg, dose level Low): 6.69 x10E6/uL
HEMATOCRIT (10 mg/kg, dose level Low): 45.23%
HEMOGLOBIN (10 mg/kg, dose level Low): 13.75 G/DL
LEUKOCYTE COUNT (10 mg/kg, dose level Low): 8.71 x10E3/uL
LYMPHOCYTE (10 mg/kg, dose level Low): 79.03%
MEAN CORPUSCULAR HEMOGLOBIN (10 mg/kg, dose level Low): 20.57 pg
MEAN CORPUSCULAR HEMOGLOBIN CONCENTRATION (10 mg/kg, dose level Low): 30.38 G/DL
MEAN CORPUSCULAR VOLUME (10 mg/kg, dose level Low): 67.67 fL
MONOCYTE (10 mg/kg, dose level Low): 1.82%
NEUTROPHIL (10 mg/kg, dose level Low): 16.77%
PLATELET COUNT (10 mg/kg, dose level Low): 1228.25 x10E3/uL
ALANINE AMINOTRANSFERASE (10 mg/kg, dose level Low): 48.75 u/L
ALBUMIN (10 mg/kg, dose level Low): 3.7 G/DL
ALKALINE PHOSPHATASE (10 mg/kg, dose level Low): 472.25 u/L
ASPARTATE AMINOTRANSFERASE (10 mg/kg, dose level Low): 65.25 u/L
BLOOD UREA NITROGEN (10 mg/kg, dose level Low): 13 mg/dL
CARBON DIOXIDE (10 mg/kg, dose level Low): 38.5 mmol/L
CHLORIDE (10 mg/kg, dose level Low): 107.25 MEQ/L
CHOLESTEROL (10 mg/kg, dose level Low): 86.75 mg/dL
CREATINE PHOSPHOKINASE (10 mg/kg, dose level Low): 250.75 u/L
CREATININE (10 mg/kg, dose level Low): 0.67 mg/dL
GLUCOSE (10 mg/kg, dose level Low): 167 mg/dL
LACTATE DEHYDROGENASE (10 mg/kg, dose level Low): 129.25 u/L
LIPASE (10 mg/kg, dose level Low): 38.5 u/L
PHOSPHORUS (10 mg/kg, dose level Low): 12.45 mg/dL
POTASSIUM (10 mg/kg, dose level Low): 6.83 MEQ/L
SODIUM (10 mg/kg, dose level Low): 153.75 MEQ/L
TOTAL BILIRUBIN (10 mg/kg, dose level Low): 0.3 mg/dL
TOTAL PROTEIN (10 mg/kg, dose level Low): 6.32 G/DL
URIC ACID (10 mg/kg, dose level Low): 0.98 mg/dL
ABSOLUTE BASOPHIL (100 mg/kg, dose level High): 130 cells/µL
ABSOLUTE EOSINOPHIL (100 mg/kg, dose level High): 55 cells/µL
ABSOLUTE LYMPHOCYTE (100 mg/kg, dose level High): 9590 cells/µL
ABSOLUTE MONOCYTE (100 mg/kg, dose level High): 430 cells/µL
BASOPHIL (100 mg/kg, dose level High): 0.95%
EOSINOPHIL (100 mg/kg, dose level High): 0.5%
ERYTHROCYTE COUNT (100 mg/kg, dose level High): 6.9 x10E6/uL
HEMATOCRIT (100 mg/kg, dose level High): 46.1%
HEMOGLOBIN (100 mg/kg, dose level High): 14.12 G/DL
LEUKOCYTE COUNT (100 mg/kg, dose level High): 11.89 x10E3/uL
LYMPHOCYTE (100 mg/kg, dose level High): 80.6%
MEAN CORPUSCULAR HEMOGLOBIN (100 mg/kg, dose level High): 20.48 pg
MEAN CORPUSCULAR HEMOGLOBIN CONCENTRATION (100 mg/kg, dose level High): 30.62 G/DL
MEAN CORPUSCULAR VOLUME (100 mg/kg, dose level High): 66.9 fL
MONOCYTE (100 mg/kg, dose level High): 3.62%
NEUTROPHIL (100 mg/kg, dose level High): 12.9%
PLATELET COUNT (100 mg/kg, dose level High): 1177.75 x10E3/uL
ALANINE AMINOTRANSFERASE (100 mg/kg, dose level High): 102.25 u/L
ALBUMIN (100 mg/kg, dose level High): 3.6 G/DL
ALKALINE PHOSPHATASE (100 mg/kg, dose level High): 460.75 u/L
ASPARTATE AMINOTRANSFERASE (100 mg/kg, dose level High): 150.5 u/L
BLOOD UREA NITROGEN (100 mg/kg, dose level High): 13.5 mg/dL
CARBON DIOXIDE (100 mg/kg, dose level High): 37.75 mmol/L
CHLORIDE (100 mg/kg, dose level High): 108 MEQ/L
CHOLESTEROL (100 mg/kg, dose level High): 61.5 mg/dL
CREATINE PHOSPHOKINASE (100 mg/kg, dose level High): 211.25 u/L
CREATININE (100 mg/kg, dose level High): 0.67 mg/dL
GLUCOSE (100 mg/kg, dose level High): 169.5 mg/dL
LACTATE DEHYDROGENASE (100 mg/kg, dose level High): 94.25 u/L
LIPASE (100 mg/kg, dose level High): 24.75 u/L
PHOSPHORUS (100 mg/kg, dose level High): 13.18 mg/dL
POTASSIUM (100 mg/kg, dose level High): 7.25 MEQ/L
SODIUM (100 mg/kg, dose level High): 154.25 MEQ/L
TOTAL BILIRUBIN (100 mg/kg, dose level High): 0.3 mg/dL
TOTAL PROTEIN (100 mg/kg, dose level High): 6.08 G/DL
URIC ACID (100 mg/kg, dose level High): 1.07 mg/dL
